Assay results as given in the NIST ThermoML archive (doi:10.1016/j.fluid.2013.09.029).
± gives the expanded uncertainty stated by the source.

Conditions: Liquid; for mass density: 298.15 K, 101.33 kPa, Vibrating tube method; for vapor or sublimation pressure: Closed cell (Static) method

For `CCC(C)O` (configuration not stated) [butan-2-ol], the mass density was 802.47 ± 0.16 kg/m3, the “vapor or sublimation pressure” value (332.9 K) was 18 ± 0.2 kPa and the “vapor or sublimation pressure” value (342.9 K) was 29.2 ± 0.3 kPa. The “vapor or sublimation pressure” value (352.5 K) was 45 ± 0.4 kPa, the “vapor or sublimation pressure” value (361.3 K) was 65 ± 0.6 kPa and the “vapor or sublimation pressure” value (371.1 K) was 96 ± 0.8 kPa. For the same molecule, the “vapor or sublimation pressure” value (381.1 K) was 137.6 ± 1 kPa, the “vapor or sublimation pressure” value (391.9 K) was 197.5 ± 1.4 kPa and the “vapor or sublimation pressure” value (401.4 K) was 266.1 ± 1.8 kPa. The “vapor or sublimation pressure” value (412 K) was 361.8 ± 2.2 kPa and the “vapor or sublimation pressure” value (421.6 K) was 471.4 ± 2.6 kPa.
With `CC(C)(C)O` [2-methylpropan-2-ol] the mass density was 781.04 ± 0.18 kg/m3, the “vapor or sublimation pressure” value (330.9 K) was 34.9 ± 0.4 kPa and the “vapor or sublimation pressure” value (331.1 K) was 35.3 ± 0.4 kPa. For the same molecule, the “vapor or sublimation pressure” value (340.6 K) was 54 ± 0.5 kPa, the “vapor or sublimation pressure” value (350.6 K) was 82.6 ± 0.7 kPa and the “vapor or sublimation pressure” value (360.1 K) was 121.2 ± 1 kPa. The “vapor or sublimation pressure” value (369.5 K) was 171.4 ± 1.3 kPa, the “vapor or sublimation pressure” value (378.5 K) was 232.1 ± 1.6 kPa and the “vapor or sublimation pressure” value (387.7 K) was 310.6 ± 2.1 kPa. The “vapor or sublimation pressure” value (396.7 K) was 406.4 ± 2.4 kPa.
For `CCCCCO` [pentan-1-ol], the mass density was 811.04 ± 0.15 kg/m3, the “vapor or sublimation pressure” value (333.1 K) was 3.1 ± 0.1 kPa and the “vapor or sublimation pressure” value (344.8 K) was 6 ± 0.1 kPa. The “vapor or sublimation pressure” value (354.4 K) was 10 ± 0.1 kPa, the “vapor or sublimation pressure” value (362.4 K) was 14.8 ± 0.2 kPa and the “vapor or sublimation pressure” value (371.2 K) was 21.9 ± 0.2 kPa. The “vapor or sublimation pressure” value (381.6 K) was 34.1 ± 0.3 kPa, the “vapor or sublimation pressure” value (391.5 K) was 50.2 ± 0.4 kPa and the “vapor or sublimation pressure” value (401.7 K) was 73.1 ± 0.6 kPa. The “vapor or sublimation pressure” value (411.4 K) was 102.1 ± 0.7 kPa and the “vapor or sublimation pressure” value (422.4 K) was 145.2 ± 0.9 kPa.
